Target: Tie-2 (Homo sapiens, UniProt Q02763)
Experiment: Tie-2 tyrosine kinase activity assay (luciferase/luciferin ATP consumption with pEY substrate, or 33P-ATP incorporation)
Format: biochemical
Conditions: human enzyme Tie-2
How it was run: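 Values are IC50 categories (A <50 nM to D ≥10,000 nM), with Ki obtainable by fitting rates to a tight-binding model. Assay formats: 33P-ATP phosphate transfer to adsorbed generic substrate counted by scintillation, or luciferase-detected ATP depletion using pEY.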

Sequence of Tie-2 (Q02763 23-1124): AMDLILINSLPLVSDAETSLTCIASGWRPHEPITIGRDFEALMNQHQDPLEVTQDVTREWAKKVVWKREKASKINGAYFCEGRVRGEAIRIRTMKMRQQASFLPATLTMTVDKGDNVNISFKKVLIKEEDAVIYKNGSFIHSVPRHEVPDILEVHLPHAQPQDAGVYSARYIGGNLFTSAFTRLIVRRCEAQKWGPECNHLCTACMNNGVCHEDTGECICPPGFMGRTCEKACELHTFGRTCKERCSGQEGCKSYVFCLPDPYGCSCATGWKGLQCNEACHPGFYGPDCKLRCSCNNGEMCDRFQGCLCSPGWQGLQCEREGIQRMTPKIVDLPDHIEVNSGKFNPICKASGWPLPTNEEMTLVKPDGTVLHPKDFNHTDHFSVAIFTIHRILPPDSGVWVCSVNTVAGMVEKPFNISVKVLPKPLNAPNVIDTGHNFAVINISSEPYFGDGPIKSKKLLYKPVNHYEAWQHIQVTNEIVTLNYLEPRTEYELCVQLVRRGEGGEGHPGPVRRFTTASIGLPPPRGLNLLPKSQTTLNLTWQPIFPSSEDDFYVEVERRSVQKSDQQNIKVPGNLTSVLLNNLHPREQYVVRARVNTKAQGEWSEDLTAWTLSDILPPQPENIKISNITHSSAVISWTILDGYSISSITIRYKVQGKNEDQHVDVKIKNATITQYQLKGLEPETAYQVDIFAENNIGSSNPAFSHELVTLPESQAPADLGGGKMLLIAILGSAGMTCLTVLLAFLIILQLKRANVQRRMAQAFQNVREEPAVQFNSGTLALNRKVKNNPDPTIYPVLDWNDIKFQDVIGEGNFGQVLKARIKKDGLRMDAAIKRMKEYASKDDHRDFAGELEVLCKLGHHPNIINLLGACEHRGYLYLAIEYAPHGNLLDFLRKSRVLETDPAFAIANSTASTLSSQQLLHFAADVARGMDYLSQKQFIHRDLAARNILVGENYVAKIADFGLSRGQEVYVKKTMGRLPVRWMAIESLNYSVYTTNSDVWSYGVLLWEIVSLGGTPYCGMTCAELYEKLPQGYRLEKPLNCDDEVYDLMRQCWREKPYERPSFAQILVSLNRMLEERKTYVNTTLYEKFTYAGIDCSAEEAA

Row | IC50 [nM] | Compound
1 | 50 to 1000 | O=C(Nc1cc(C(F)(F)F)cc(C(F)(F)F)c1)N1CCN(c2nccnc2OCc2ccnc(Cl)c2)CC1 [Example 84, N-[3,5-bis(trifluoromethyl)phenyl]-4-(3-{[(2-chloropyridin-4-yl)methyl]oxy}pyrazin-2-yl)piperazine-1-carboxamide]
2 | < 50 | Nc1nccc(COc2nccnc2N2CCN(C(=O)Nc3cc(C(F)(F)F)ccc3F)CC2)n1 [Example 225, 4-(3-{[(2-aminopyrimidin-4-yl)methyl]oxy}pyrazin-2-yl)-N-[2-fluoro-5-(trifluoromethyl)phenyl]piperazine-1-carboxamide]
3 | < 50 | O=C(Nc1cc(C(F)(F)F)cc(C(F)(F)F)c1)N1CCN(c2nsnc2OCc2ccnc(NC3CC3)n2)CC1 [Example 123, N-[3,5-bis(trifluoromethyl)phenyl]-4-[4-({[2-(cyclopropylamino)pyrimidin-4-yl]methyl}oxy)-1,2,5-thiadiazol-3-yl]piperazine-1-carboxamide]
4 | 50 to 1000 | O=C(NCC1CCN(c2nsnc2OCc2ccncc2)CC1)Nc1cc(C(F)(F)F)cc(C(F)(F)F)c1 [Example 28]
5 | < 50 | CCc1cccc(NC(=O)N2CCN(c3ncccc3OCc3ccnc(NC(=O)OC)c3)CC2)c1 [Example 161, methyl [4-({[2-(4-{[(3-ethylphenyl)amino]carbonyl}piperazin-1-yl)pyridin-3-yl]oxy}methyl)pyridin-2-yl]carbamate]
6 | ≥ 10000 | O=C(Nc1cc(C(F)(F)F)cc(C(F)(F)F)c1)N1CCN(c2nsnc2OCc2ccoc2)CC1 [Example 20]
7 | < 50 | Nc1nccc(COc2cccnc2N2CCN(C(=O)Nc3cc(F)cc(C(F)(F)F)c3)CC2)n1 [Example 196, 4-(3-{[(2-aminopyrimidin-4-yl)methyl]oxy}pyridin-2-yl)-N-[3-fluoro-5-(trifluoromethyl)phenyl]piperazine-1-carboxamide]
8 | 50 to 1000 | CN(C)CCNc1cc(COc2nsnc2N2CCN(C(=O)Nc3cc(C(F)(F)F)cc(C(F)(F)F)c3)CC2)ccn1 [Example 120, N-[3,5-bis(trifluoromethyl)phenyl]-4-(4-{[(2-{[2-(dimethylamino)ethyl]amino}pyridin-4-yl)methyl]oxy}-1,2,5-thiadiazol-3-yl)piperazine-1-carboxamide]
9 | 50 to 1000 | C[C@@H]1CN(c2nsnc2OCc2ccncc2)CCN1C(=O)Nc1cc(C(F)(F)F)cc(C(F)(F)F)c1 [Example 52, (2R)-N-[3,5-bis(trifluoromethyl)phenyl]-2-methyl-4-{4-[(pyridin-4-ylmethyl)oxy]-1,2,5-thiadiazol-3-yl}piperazine-1-carboxamide]
10 | 50 to 1000 | CCCCNc1cc(COc2nsnc2N2CCN(C(=O)Nc3cc(C(F)(F)F)cc(C(F)(F)F)c3)CC2)ccn1 [Example 114, N-[3,5-bis(trifluoromethyl)phenyl]-4-[4-({[2-(butylamino)pyridin-4-yl]methyl}oxy)-1,2,5-thiadiazol-3-yl]piperazine-1-carboxamide]
11 | < 50 | CN1CCN(CC(=O)Nc2cc(COc3cccnc3N3CCN(C(=O)Nc4cccc(C(F)(F)F)c4)CC3)ccn2)CC1 [Example 214, 4-(3-{[(2-{[(4-methylpiperazin-1-yl)acetyl]amino}pyridin-4-yl)methyl]oxy}pyridin-2-yl)-N-[3-(trifluoromethyl)phenyl]piperazine-1-carboxamide]
12 | 1000 to 10000 | O=C(Nc1cccc(C(F)(F)F)c1)NC1CCN(c2nsnc2OCc2ccncc2)C1 (stereo not drawn) [Example 49, N-(1-{4-[(pyridin-4-ylmethyl)oxy]-1,2,5-thiadiazol-3-yl}pyrrolidin-3-yl)-N′-[3-(trifluoromethyl)phenyl]urea]
13 | 50 to 1000 | CCc1cccc(NC(=O)N2CCN(c3nc4ccccc4nc3OCc3ccncc3)CC2C)c1 (stereo not drawn) [Example 95, N-(3-ethylphenyl)-2-methyl-4-{3-[(pyridin-4-ylmethyl)oxy]quinoxalin-2-yl}piperazine-1-carboxamide]
14 | ≥ 10000 | Nc1cc(COc2nsnc2N2CCN(S(=O)(=O)c3cc(C(F)(F)F)cc(C(F)(F)F)c3)CC2)ccn1 [Example 148, 4-({[4-(4-{[3,5-bis(trifluoromethyl)phenyl]sulfonyl}piperazin-1-yl)-1,2,5-thiadiazol-3-yl]oxy}methyl)pyridin-2-amine]
15 | 1000 to 10000 | O=C(Nc1cccc(Br)c1)N1CCN(c2nsnc2OCc2ccncc2)CC1 [Example 5]
16 | < 50 | CC1CN(C(=O)Nc2cc(C(F)(F)F)cc(C(F)(F)F)c2)CCN1c1nccnc1OCc1ccncc1 (stereo not drawn) [Example 70, N-[3,5-bis(trifluoromethyl)phenyl]-3-methyl-4-{3-[(pyridin-4-ylmethyl)oxy]pyrazin-2-yl}piperazine-1-carboxamide]
17 | 50 to 1000 | O=C(Nc1nccc(COc2nsnc2N2CCN(C(=O)Nc3cc(C(F)(F)F)cc(C(F)(F)F)c3)CC2)n1)OCCN1CCCC1 [Example 162, 2-pyrrolidin-1-ylethyl {4-[({4-[4-({[3,5-bis(trifluoromethyl)phenyl]amino}carbonyl)piperazin-1-yl]-1,2,5-thiadiazol-3-yl}oxy)methyl]pyrimidin-2-yl}carbamate]

Row | IC50 [nM] | Compound
18 | 50 to 1000 | CC1CN(C(=O)Nc2cccc(C(F)(F)F)c2)CCN1c1nccnc1OCc1ccncc1 (stereo not drawn) [Example 71, 3-methyl-4-{3-[(pyridin-4-ylmethyl)oxy]pyrazin-2-yl}-N-[3-(trifluoromethyl)phenyl]piperazine-1-carboxamide]
19 | 50 to 1000 | O=C(Nc1cccc(Cl)c1)N1CCN(c2ncccc2OCc2ccncc2)CC1 [Example 105, N-(3-chlorophenyl)-4-{3-[(pyridin-4-ylmethyl)oxy]pyridin-2-yl}piperazine-1-carboxamide]
20 | < 50 | Nc1nccc(COc2nsnc2N2CCN(C(=O)Nc3cc(C(F)(F)F)cc(C(F)(F)F)c3)CC2)n1 [Example 104, 4-(4-{[(2-aminopyrimidin-4-yl)methyl]oxy}-1,2,5-thiadiazol-3-yl)-N-[3,5-bis(trifluoromethyl)phenyl]piperazine-1-carboxamide]
21 | < 50 | CN1CCN(CC(=O)Nc2cc(COc3cccnc3N3CCN(C(=O)Nc4cccc(C5CC5)c4)CC3)ccn2)CC1 [Example 209, N-(3-cyclopropylphenyl)-4-(3-{[(2-{[(4-methylpiperazin-1-yl)acetyl]amino}pyridin-4-yl)methyl]oxy}pyridin-2-yl)piperazine-1-carboxamide]
22 | < 50 | O=C(Nc1cc(C(F)(F)F)cc(C(F)(F)F)c1)N1CCN(c2ncccc2OCc2ccncc2)CC1 [Example 97, N-[3,5-bis(trifluoromethyl)phenyl]-4-{3-[(pyridin-4-ylmethyl)oxy]pyridin-2-yl}piperazine-1-carboxamide]
23 | 50 to 1000 | C[C@H]1CN(c2nsnc2OCc2ccncc2)CCN1C(=O)Nc1cccc(C(F)(F)F)c1 [Example 58, (2S)-2-methyl-4-{4-[(pyridin-4-ylmethyl)oxy]-1,2,5-thiadiazol-3-yl}-N-[3-(trifluoromethyl)phenyl]piperazine-1-carboxamide]
24 | 1000 to 10000 | Nc1nccc(COc2ccccc2N2CCN(C(=O)Nc3ccccc3)CC2)n1 [Example 270, 4-(2-{[(2-aminopyrimidin-4-yl)methyl]oxy}phenyl)-N-phenylpiperazine-1-carboxamide]
25 | < 50 | Nc1nccc(COc2nccnc2N2CCN(C(=O)Nc3cccc(C(F)(F)F)c3)CC2)n1 [Example 229, 4-(3-{[(2-aminopyrimidin-4-yl)methyl]oxy}pyrazin-2-yl)-N-[3-(trifluoromethyl)phenyl]piperazine-1-carboxamide]
26 | 1000 to 10000 | Nc1nccc(COc2cccnc2N2CCN(C(=O)Nc3ccccc3F)CC2)n1 [Example 188, 4-(3-{[(2-aminopyrimidin-4-yl)methyl]oxy}pyridin-2-yl)-N-(2-fluorophenyl)piperazine-1-carboxamide]
27 | 50 to 1000 | O=C(Nc1cc(C(F)(F)F)cc(C(F)(F)F)c1)N1CCN(c2nsnc2OCc2ccnc(NCc3ccccc3)c2)CC1 [Example 115, N-[3,5-bis(trifluoromethyl)phenyl]-4-{4-[({2-[(phenylmethyl)amino]pyridin-4-yl}methyl)oxy]-1,2,5-thiadiazol-3-yl}piperazine-1-carboxamide]
28 | 1000 to 10000 | O=C(Nc1cccc(C(F)(F)F)c1)N1CCCN(c2nsnc2OCc2ccncc2)CC1 [Example 45, 4-{4-[(pyridin-4-ylmethyl)oxy]-1,2,5-thiadiazol-3-yl}-N-[3-(trifluoromethyl)phenyl]-1,4-diazepane-1-carboxamide]
29 | < 50 | CN1CCN(CC(=O)Nc2cc(COc3cccnc3N3CCN(C(=O)Nc4cc(F)cc(C(F)(F)F)c4)CC3)ccn2)CC1 [Example 212, N-[3-fluoro-5-(trifluoromethyl)phenyl]-4-(3-{[(2-{[(4-methylpiperazin-1-yl)acetyl]amino}pyridin-4-yl)methyl]oxy}pyridin-2-yl)piperazine-1-carboxamide]
30 | 50 to 1000 | O=C(Nc1cc(C(F)(F)F)cc(C(F)(F)F)c1)N1CCN(c2nccnc2OCc2ccnc(F)c2)CC1 [Example 89, N-[3,5-bis(trifluoromethyl)phenyl]-4-(3-{[(2-fluoropyridin-4-yl)methyl]oxy}pyrazin-2-yl)piperazine-1-carboxamide]
31 | < 50 | CN1CCN(CCOC(=O)Nc2cc(COc3nsnc3N3CCN(C(=O)Nc4cc(C(F)(F)F)cc(C(F)(F)F)c4)CC3)ccn2)CC1 [Example 145, 2-(4-methylpiperazin-1-yl)ethyl {4-[({4-[4-({[3,5-bis(trifluoromethyl)phenyl]amino}carbonyl)piperazin-1-yl]-1,2,5-thiadiazol-3-yl}oxy)methyl]pyridin-2-yl}carbamate]
32 | 50 to 1000 | CC1CN(c2nccnc2OCc2ccncc2)CCN1C(=O)Nc1cccc(C(F)(F)F)c1 (stereo not drawn) [Example 63, 2-methyl-4-{3-[(pyridin-4-ylmethyl)oxy]pyrazin-2-yl}-N-[3-(trifluoromethyl)phenyl]piperazine-1-carboxamide]
33 | < 50 | Nc1nccc(COc2cccnc2N2CCN(C(=O)Nc3cc(C(F)(F)F)cc(C(F)(F)F)c3)CC2)n1 [Example 142, 4-(3-{[(2-aminopyrimidin-4-yl)methyl]oxy}pyridin-2-yl)-N-[3,5-bis(trifluoromethyl)phenyl]piperazine-1-carboxamide]

From patent US8013156B2 (Exelixis, Inc., priority 2003, dated 2011)
